Measured values reported in patent US6323240A, “4-phenyl-4-oxo-butanoic acid derivatives with kynurenine-3-hydroxylase inhibiting activity” (Pharmacia & Upjohn S.p.A., priority 1995, dated 2001).

Tests used:
[1] = system: excitotoxic neuronal damage evoked by QUIN; details: co-injected with QUIN; cited from earlier work
[2] = system: ionotropic excitatory aminoacid receptors; details: preferentially acting at the glycine co-agonist site of the NMDA receptor; cited from earlier work
CNS = details: cited from earlier work
kynurenine-3-hydroxylase [3] = target: T1, kynurenine-3-hydroxylase (Rattus norvegicus, UniProt O88867); test: Kynurenine-3-hydroxylase assay in the rat brain (conversion of L-kynurenine to L-3-hydroxykynurenine, HPLC with coulometric detection); type: biochemical; details: rat brain homogenate; 50 μM L-kynurenine; pH 7.5; 60 min
Description: Kynurenine-3-hydroxylase Assay in the Rat Brain
Brain was homogenized in ice-cold 0.32 M sucrose and centrifuged at 12000×g for 30 min at 4° C. The pellet was washed three times with 0.32 M sucrose by centrifugation and suspended in 0.14 M KCl in 20 mM K-phosphate buffer at pH 7 (1 g tissue in 2 ml buffer).
The reaction mixture contained: 75 μl of suspended homogenate; 100 μl of substrate solution containing 50 mM K-phosphate buffer pH 7.5, 2 mM MgCl2, 0.4 mM NADPH, 50 μM L-kynurenine (final concentration), and 25 μl of different concentrations of inhibitor solutions. The reaction was stopped by addition of 200 μl of 1 M HClO4 after 60 min incubation. L-3-hydroxykynurenine formed was quantified by HPLC with coulometric detection at a working voltage of +0.2 V. The column was a 10 cm C18 reversed phase (3 μm. The mobile phase consisted of 950 ml distilled water, 20 ml acetonitrile, 9 ml triethylamine, 5.9 ml phosphoric acid, 100 mg sodium EDTA and 1.5 g heptanesulfonic acid. The flow rate was 1 ml/min.

kynurenine-3-hydroxylase [4] = target: T1, kynurenine-3-hydroxylase; test: Kynurenine-3-hydroxylase assay in the rat liver (radiometric, tritiated water release, rat liver mitochondrial extract); type: biochemical; set-up: Rat liver mitochondrial extract was used as enzymatic preparation for this assay; from tissue; host or cells: rat liver mitochondrial extract; details: 0.025 mM L-kynurenine, pH 8.1, 37° C., 30 min
Description: Kynurenine-3-hydroxylase Assay in the Rat Liver
The assay for kynurenine 3-hydroxylase was based on the enzymatic synthesis of tritiated water during the hydroxylation reaction. Radiolabeled water was quantified following selective adsorption of the isotopic substrate and its metabolite with activated charcoal.
Rat liver mitochondrial extract was used as enzymatic preparation for this assay.
The assay for kynurenine 3-hydroxylase activity was carried out at 37° C. for a time of 30 min. The reaction mixture of a total volume of […] was constituted of […] of suspended extract, 100 mM Tris/Cl^- buffer pH 8.1, 10 mM EDTA, 100 mM Kcl, 0.8 mM NADPH, 0.025 mM L-kynurenine, […] L-(3,5-^3 H)Kynurenine (10 Ci/mmol) and […] of different concentration of inhibitor solutions. After the incubation the reaction was terminated by the addition of 1 mL of 7.5% (w/v) activated charcoal, vortexed and centrifugated for 7 min.
A […] aliquot of supernatant was counted by scintillation spectroscopy in 5 ml of liquid scintillation.

neuronal cell cultures = details: relatively low concentrations; prolonged period of time or in combination with glutamate; cited from earlier work
[5] = system: N-methyl-D-aspartate (NMDA) receptor; details: cited from earlier work

T1 sequence (O88867 whole entry): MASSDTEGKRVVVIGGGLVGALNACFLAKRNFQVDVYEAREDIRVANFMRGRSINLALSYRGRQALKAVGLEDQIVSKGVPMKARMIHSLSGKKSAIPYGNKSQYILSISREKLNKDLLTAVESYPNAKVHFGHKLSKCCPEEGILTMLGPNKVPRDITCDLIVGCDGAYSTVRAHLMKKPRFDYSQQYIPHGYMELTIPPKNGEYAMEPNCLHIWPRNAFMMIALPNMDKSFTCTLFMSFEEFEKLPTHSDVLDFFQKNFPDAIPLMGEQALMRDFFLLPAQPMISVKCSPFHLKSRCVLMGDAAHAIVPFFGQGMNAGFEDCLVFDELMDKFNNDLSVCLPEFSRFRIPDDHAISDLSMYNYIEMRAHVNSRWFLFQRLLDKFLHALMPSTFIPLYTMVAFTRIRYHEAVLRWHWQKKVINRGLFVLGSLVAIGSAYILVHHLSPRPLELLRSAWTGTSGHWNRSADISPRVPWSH

| SMILES | IC50 (kynurenine-3-hydroxylase [3]) | IC50 (kynurenine-3-hydroxylase [4]) | also measured |
| --- | --- | --- | --- |
| O=C(O)c1cc(=O)c2ccccc2[nH]1 [KYNA, kynurenic acid] |  |  | prevention of QUIN-evoked excitotoxic neuronal damage [1]: able to prevent the excitotoxic neuronal damage; antagonism of the ionotropic excitatory aminoacid receptors [2]: broad spectrum antagonist; action when injected in the CNS (CNS): neuroprotective agent |
| O=C(O)CCC(=O)c1ccc(Cl)c(Cl)c1 [PNU 156588, 4-(3',4'-dichlorophenyl)-4-oxo-butanoic acid] | 0.9 µM | 3.9 µM |  |
| O=C(O)CCC(=O)c1ccc(F)c(F)c1 [PNU 157720, 4-(3',4'-difluorophenyl)-4-oxo-butanoic acid] | 3.7 µM | 18.3 µM |  |
| CC(CC(=O)c1ccc(F)c(F)c1)C(=O)O (racemic) [PNU 157952, (R,S)-2-methyl-4-(3',4'-difluorophenyl)-4-oxo-butanoic acid] | 3.9 µM | 55.1 µM |  |
| O=C(O)c1cccnc1C(=O)O [QUIN, quinolinic acid] |  |  | neurotoxicity in neuronal cell cultures (neuronal cell cultures): neurotoxic; agonism at the NMDA receptor [5]: highly selective agonist; in vivo lesions and convulsions (CNS; in vivo): convulsions and axon sparing lesions; action when injected in the CNS (CNS): neurotoxin |
| O=C(CC(Cl)C(=O)O)c1ccc(Cl)c(Cl)c1 (racemic) [PNU 158781, (R,S)-2-chloro-4-(3',4'-dichlorophenyl)-4-oxo-butanoic acid] |  | 13.3 µM |  |
| O=C(CC(O)C(=O)O)c1cccc(Cl)c1 (racemic) [PNU 158789, (R,S)-2-hydroxy-4-(3'-chlorophenyl)-4-oxo-butanoic acid] | 0.45 µM | 1.8 µM |  |
| COC(=O)CCC(=O)c1ccc(Cl)c(Cl)c1 [PNU 158381, Methyl 4-(3',4'-dichlorophenyl)-4-oxo-butanoate] |  | 5.7 µM |  |
| COC(CC(=O)c1ccc(F)c(F)c1)C(=O)O (racemic) [PNU 158380, (R,S)-2-methoxy-4-(3',4'-difluorophenyl)-4-oxo-butanoic acid] | 12.6 µM | 42.4 µM |  |
| C=C(CC(=O)c1ccc(Cl)c(Cl)c1)C(=O)O [PNU 158432, 2-methyliden-4-(3',4'-dichlorophenyl)-4-oxo-butanoic acid] |  | 36 µM |  |
| COC(=O)C(CC(=O)c1ccc(Cl)c(Cl)c1)Cc1ccccc1 (racemic) [PNU 167531, (R,S)-Methyl-2-benzyl-4-(3',4'-dichlorophenyl)-4-oxo-butanoate] |  | 1.9 µM |  |
| COC(=O)C(O)CC(=O)c1ccc(Cl)c(Cl)c1 (racemic) [PNU 161211, Methyl(R,S)-2-hydroxy-4-(3',4'-dichlorophenyl)-4-oxo-butanoate] | 3.1 µM | 5.6 µM |  |
| O=C(O)CC(C(=O)c1ccc(Cl)c(Cl)c1)c1ccccc1 (racemic) [PNU 167541, (R,S)-3-phenyl-4-(3',4'-dichlorophenyl)-4-oxo-butanoic acid] |  | 55 µM |  |
| CC(CC(=O)O)C(=O)c1ccc(Cl)c(Cl)c1 (racemic) [PNU 161243, (R,S)-3-methyl-4-(3',4'-dichlorophenyl)-4-oxo-butanoic acid] | 14.3 µM |  |  |
| O=C(O)C(O)C(Cc1ccccc1)C(=O)c1ccc(Cl)c(Cl)c1 (centres unmarked) [PNU 167536, 2-hydroxy-3-benzyl-4-(3',4'-dichlorophenyl)-4-oxo-butanoic acid] |  | 61.6 µM |  |
